Measurements from US3956328A, “S-triazolo(1,5-a)pyridine derivative” (Kyorin Seiyaku Kabushiki Kaisha, priority 1973, dated 1976).
Where a name gives a salt, the structure may show the parent alone.

Legend:
[1] = Solubility and hygroscopicity of the salt; type: physicochemical
[2] = system: heterologous PCA in guinea pigs; experiment: Heterologous passive cutaneous anaphylaxis (PCA) in guinea pigs; type: in vivo, guinea pig; conditions: 25 mg/kg po, 30 min. before challenge; rabbit antiserum to egg albumin
Description: Male guinea pigs are passively sensitized by the intradermal injection of rabbit antiserum to egg albumin and challenged by the intravenous injection of egg albumin 4 hrs. after the sensitization. The test compounds are orally given 30 min. before the challenge.

[3] = system: histamine-induced asthma attack; experiment: Inhibitory action on histamine-induced asthma attack in guinea pigs; type: in vivo, guinea pig; conditions: for z1 (statistical value): Mann and Whitney U test
Description: Inhibitory actions on histamine-induced asthma attack: Male guinea pigs, of about 300 g body weight are used. Asthma attack is provoked by an aerosol of 0.2% histamine dihydrochloride solution in physiological saline for 10 minutes. The inhibitory actions are examined by shock grades, No. of collapsed guinea pigs/No. of provoked guinea pigs and survival rate. The tested compounds are orally given 2 hrs. prior to spraying of histamine solution.
A/B: No. of collapsed guinea pigs/ No. of provoked guinea pigs.
Statistical comparisons were carried out with the Mann and Whtineys' U

ddN mice = conditions: cited from earlier work
[4] = system: BSA induced asthma in guinea pigs; experiment: Inhibitory action on BSA-induced (experimentally allergic) asthma attack in passively sensitized guinea pigs; type: in vivo, guinea pig; conditions: for p (statistical significance vs non treatment) / z1 (statistical value vs non treatment): severity; for z1 (statistical value vs non treatment): Mann and Whitney U test
Description: The present compound is studied on asthma attacks induced by the antigen-antibody reaction in guinea pigs. The guinea pigs are sensitized passively by the injection of 0.1 to 0.3 ml /100g body weight of rabbit antiserum to BSA (bovine serum albumin) into the ear vein. Forty six hours after passive sensitization, the guinea pigs are orally given the tested compounds. Two hours after oral administration, the asthma attack is provoked by an aerosol injection (0.1 ml/min.) of 1% BSA solution in physiological saline into the plastic chamber in which the testing guinea pig is placed. The symptoms of the asthma attack are observed for 10 minutes and scored on the following shock indices. The shock indices are examined by the shock grades, No. of collapsed guinea pigs/No. of used animals and survival rate.
The shock grades are as follows:
1 slight stimulation of expiration
2 stimulation of expiration (labored expiration)
3 attack of singultation
4 the strongest attack of collapse and struggle
but recovery from collapse within 5 minutes
5 recovery from collapse within 5 to 10 minutes
6 interruption of expiration to death within 10
*Statistical comparisons were carried out with the Mann and Whitneys' U
z1 : The statistical value between non treatment and each tested
z2 : The statistical value between the present compound and […]

[5] = system: guinea pig tracheal chain strips; experiment: Anti histaminic action: histamine-induced contraction of guinea pig tracheal chain strips; conditions: 4×10^^-5 M; Tyrodes solution
guinea pig ileum = experiment: Schultz-Dale reaction in guinea pig ileum sensitized actively with egg albumin; conditions: antigen egg albumin
Description: Male guinea pigs are actively sensitized and their ileum preparations are treated by Schultz-Dales method (J. Pharmacol. Exp. Ther., 4, 167, 1913). […] These preceeding pharmacological properties of the present compound are due to triazolo [1,5-a]pyridine.

[6] = antiserum 0.1 ml/100 g, 0.5 mg/kg p.o.
[7] = antiserum 0.1 ml/100 g, 1.0 mg/kg p.o.
[8] = antiserum 0.1 ml/100 g, 5.0 mg/kg p.o.
[9] = antiserum 0.2 ml/100 g, 5 mg/kg p.o.
[10] = antiserum 0.3 ml/100 g, 5 mg/kg p.o.

c1ccc(C(c2ccccc2)N2CCN(CCCc3nc4ccccn4n3)CC2)cc1 [dihydrochloride salt]
solubility in alcohols ([1]; alcohols): soluble | hygroscopicity ([1]; fine needles from ethanol-petroleum ether): hydroscopic | solubility in water ([1]; water): soluble

CN1CCCN(C(c2ccccc2)c2ccc(Cl)cc2)CC1 (stereo not drawn) [homochlorcyclizine, reference compound]
Inhibition % of extravasation of blue dye [2]: 41.7% | A/B: No. of collapsed / No. of provoked guinea pigs ([3]; 2.50 mg/kg p.o.): 5/11 | A/B: collapsed guinea pigs, number in parentheses (percentage) ([3]; 2.50 mg/kg p.o.): 45.5 | Survival rate (animals) ([3]; 2.50 mg/kg p.o.): 11/11 | Survival rate, number in parentheses (percentage) ([3]; 2.50 mg/kg p.o.): 100 | z1 (statistical value) ([3]; 2.50 mg/kg p.o. vs non treatment 2 (so in the source)): > 5 | significance of difference from non treatment 2 (so in the source) ([3]; 2.50 mg/kg p.o., homochlorcyclizine): markedly significant difference | A/B: No. of collapsed / No. of provoked guinea pigs ([3]; 10.0 mg/kg p.o.): 1/6 | A/B: collapsed guinea pigs, number in parentheses (percentage) ([3]; 10.0 mg/kg p.o.): 16.7 | Survival rate (animals) ([3]; 10.0 mg/kg p.o.): 6/6 | Survival rate, number in parentheses (percentage) ([3]; 10.0 mg/kg p.o.): 100 | z1 (statistical value) ([3]; 10.0 mg/kg p.o. vs non treatment 1 (so in the source)): 3.315 | p (significant difference from non treatment 1) ([3]; 10.0 mg/kg p.o., homochlorcyclizine): 0.0005 | acute LD50 (reported for standard drug) (ddN mice): 353 mg/kg | A/B: No. of collapsed / No. of provoked guinea pigs [4, 6]: 4/6 | A/B: collapsed guinea pigs, percentage [4, 6]: 66.7% | Survival rate (animals) [4, 6]: 5/6 | Survival rate, percentage [4, 6]: 83.3% | A/B: No. of collapsed / No. of provoked guinea pigs [4, 7]: 6/10 | A/B: collapsed guinea pigs, percentage [4, 7]: 60% | Survival rate (animals) [4, 7]: 10/10 | Survival rate, percentage [4, 7]: 100% | A/B: No. of collapsed / No. of provoked guinea pigs [4, 8]: 1/6 | A/B: collapsed guinea pigs, percentage [4, 8]: 16.7% | Survival rate (animals) [4, 8]: 6/6 | Survival rate, percentage [4, 8]: 100% | A/B: No. of collapsed / No. of provoked guinea pigs [4, 9]: 4/6 | A/B: collapsed guinea pigs, percentage [4, 9]: 66.7% | Survival rate (animals) [4, 9]: 6/6 | Survival rate, percentage [4, 9]: 100% | A/B: No. of collapsed / No. of provoked guinea pigs [4, 10]: 1.5 | A/B: collapsed guinea pigs, percentage [4, 10]: 20% | Survival rate (animals) [4, 10]: 5/5 | Survival rate, percentage [4, 10]: 100% | p (statistical significance vs non treatment) [4, 6]: < 0.02 | z1 (statistical value vs non treatment) [4, 6]: 2.235 | p (statistical significance vs non treatment) [4, 7]: < 0.001 | z1 (statistical value vs non treatment) [4, 7]: 3.368 | p (statistical significance vs non treatment) [4, 8]: < 0.001 | z1 (statistical value vs non treatment) [4, 8]: 3.576 | p (statistical significance vs non treatment) [4, 9]: < 0.0001 | z1 (statistical value vs non treatment) [4, 9]: 3.993 | p (statistical significance vs non treatment) [4, 10]: < 0.002 | z1 (statistical value vs non treatment) [4, 10]: 3.23 | inhibitory rate on histamine-induced contraction [5]: 74%

c1ccc(C(c2ccccc2)N2CCN(CCCc3nc4ccccn4n3)CC2)cc1 [the present compound HCl salt]
Inhibition % of Schultz-Dale reaction (guinea pig ileum; 2×10^^-7 M): 32.2% | Inhibition % of Schultz-Dale reaction (guinea pig ileum; 3×10^^-7 M): 55.6% | Inhibition % of Schultz-Dale reaction (guinea pig ileum; 5×10^^-7 M): 60.1%
